Laboratory results from patent US20240174690A1, “ANNULATED 2-AMINO-3-CYANO THIOPHENES AND DERIVATIVES FOR THE TREATMENT OF CANCER” (BOEHRINGER INGELHEIM INTERNATIONAL GMBH, priority 2021, published 2024).

System: Caco-2 cell monolayers
Experiment: Caco-2 assay (permeability PappAB, PappBA, efflux ratio)
Assay type: in vitro ADME
Conditions: 10 μM test compound, pH 7.4
Summary of the method: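 Bidirectional permeability (apical-to-basolateral and reverse) through polarized Caco-2 monolayers, BSA 0.25% on each side, 37 °C. Donor and receiver sampled at 0-90 min after 25-30 min preincubation, analysed by HPLC/MS/MS. Apparent permeabilities derived from transfer rate normalised to area and t=0 donor concentration; ER taken as PappBA over PappAB.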

C[C@H](Oc1cc(-c2ccn(C)n2)nc(-c2onc3c2CCC[C@@]32CCCc3sc(N)c(C#N)c32)n1)[C@@H]1CCCN1C [I-21]
Caco PappAB (apical to basolateral): 5.1e-06 cm/s | Caco ER (efflux ratio PappBA/PappAB): 6.8
